Source: patent US20260258035A1, “FIVE-MEMBERED AND SIX-MEMBERED NITROGEN-CONTAINING COMPOUND, AND INTERMEDIATE, PREPARATION METHOD AND USE THEREOF” (HANGZHOU SYNRX THERAPEUTICS BIOMEDICAL TECHNOLOGY CO., LTD., priority 2022, published 2026)

Target: PARG (Homo sapiens, UniProt Q86W56)
Experiment: Biochemical assay (PARG, TFMU-ADPr substrate)
[1] = 4 nM PARG, 66.2 uM TFMU-ADPr, 3 min at room temperature

Sequence of PARG (Q86W56 whole entry): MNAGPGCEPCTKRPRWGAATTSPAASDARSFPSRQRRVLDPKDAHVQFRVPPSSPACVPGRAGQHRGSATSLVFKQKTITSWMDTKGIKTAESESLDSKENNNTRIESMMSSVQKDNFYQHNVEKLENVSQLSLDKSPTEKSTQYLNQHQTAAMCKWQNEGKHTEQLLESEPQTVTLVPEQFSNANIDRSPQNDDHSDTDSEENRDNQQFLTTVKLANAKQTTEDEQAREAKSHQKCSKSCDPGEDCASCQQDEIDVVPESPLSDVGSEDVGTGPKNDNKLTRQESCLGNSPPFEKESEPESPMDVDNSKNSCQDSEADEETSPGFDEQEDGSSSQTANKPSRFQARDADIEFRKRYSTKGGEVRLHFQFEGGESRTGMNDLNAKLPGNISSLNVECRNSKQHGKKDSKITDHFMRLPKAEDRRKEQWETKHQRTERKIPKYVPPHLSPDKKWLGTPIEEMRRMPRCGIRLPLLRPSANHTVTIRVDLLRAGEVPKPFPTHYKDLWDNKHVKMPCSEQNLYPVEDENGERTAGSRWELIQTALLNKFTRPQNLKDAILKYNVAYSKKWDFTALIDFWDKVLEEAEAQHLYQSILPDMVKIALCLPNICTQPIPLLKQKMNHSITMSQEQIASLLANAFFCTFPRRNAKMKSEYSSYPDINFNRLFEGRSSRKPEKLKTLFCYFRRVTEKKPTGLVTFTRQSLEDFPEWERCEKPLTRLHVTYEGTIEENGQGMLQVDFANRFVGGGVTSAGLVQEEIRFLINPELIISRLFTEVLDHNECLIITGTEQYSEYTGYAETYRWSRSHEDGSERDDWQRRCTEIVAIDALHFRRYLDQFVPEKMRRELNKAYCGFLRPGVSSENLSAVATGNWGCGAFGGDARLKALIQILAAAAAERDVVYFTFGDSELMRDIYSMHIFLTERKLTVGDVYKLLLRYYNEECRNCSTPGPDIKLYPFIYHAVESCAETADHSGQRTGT

IC50 (PARG, TFMU-ADPr substrate) [nM] | IC50 [1] [nM] | SMILES
912 | – | C=CC(=O)N1CC=C(c2cnc3c(N4CCN(C(=O)C(C)C)CC4)cc(S(=O)(=O)NC4(C#N)CC4)cn23)CC1 [Example 21, 3-(1-acryloyl-1,2,3,6-tetrahydropyridin-4-yl)-N-(1-cyanocyclopropyl)-8-(4-isobutyrylpiperazin-1-yl)imidazo[1,2-a]pyridine-6-sulfonamide]
– | > 1000 | CC(C)C(=O)N1CCN(c2cc(S(=O)(=O)N[C@H]3C[C@@H]3F)cn3c(-c4nnc(C(F)F)s4)ncc23)CC1 [Example 81, 3-(5-(difluoromethyl)-1,3,4-thiadiazol-2-yl)-N-((1S,2S)-2-fluorocyclopropyl)-8-(4-isobutyrylpiperazin-1-yl)imidazo[1,5-a]pyridine-6-sulfonamide]
12 | < 100 | Cc1c(-c2cc(S(=O)(=O)NC3(C#N)CC3)cn3c(-c4nnc(C(F)F)s4)ncc23)cnn1C(C)C [Example 143, N-(1-cyanocyclopropyl)-3-(5-(difluoromethyl)-1,3,4-thiadiazol-2-yl)-8-(1-isopropyl-5-methyl-1H-pyrazol-4-yl)imidazo[1,5-a]pyridine-6-sulfonamide]
16.4 | < 100 | CN1CCN(c2cc(S(=O)(=O)NC3(C#N)CC3)cn3c(-c4nnc(C(F)F)s4)ncc23)CC1 [Example 38, N-(1-cyanocyclopropyl)-3-(5-(difluoromethyl)-1,3,4-thiadiazol-2-yl)-8-(4-methylpiperazin-1-yl)imidazo[1,5-a]pyridine-6-sulfonamide]
40 | < 100 | C=CC(=O)N1CC=C(c2cnc3c(N4CCN(C(=O)C(C)C)CC4)cc(S(=O)(=O)NC4(C#N)CC4)cn23)C1 [Example 18, 3-(1-acryloyl-2,5-dihydro-1H-pyrrol-3-yl)-N-(1-cyanocyclopropyl)-8-(4-isobutyrylpiperazin-1-yl)imidazo[1,2-a]pyridine-6-sulfonamide]
52.5 | < 100 | N#CC1(NS(=O)(=O)c2cc(N3CC4COCC4C3)c3cnc(-c4nnc(C(F)F)s4)n3c2)CC1 (stereo not drawn) [Example 79, N-(1-cyanocyclopropyl)-3-(5-(difluoromethyl)-1,3,4-thiadiazol-2-yl)-8-(tetrahydro-1H-furo[3,4-c]pyrrol-5(3H)-yl)imidazo[1,5-a]pyridine-6-sulfonamide]
72.4 | < 100 | C[C@@H]1CN(c2cc(S(=O)(=O)NC3CC3)cn3c(-c4nnc(C(F)F)s4)nnc23)CCN1C(=O)C1(C)CC1 [Example 118, (R)-N-cyclopropyl-3-(5-(difluoromethyl)-1,3,4-thiadiazol-2-yl)-8-(3-methyl-4-(1-methylcyclopropane-1-carbonyl)piperazin-1-yl)-[1,2,4]triazolo[4,3-a]pyridine-6-sulfonamide]
178 | < 100 | CCC(=O)N1CC=C(c2cnc3c(N4CCN(C(=O)C(C)C)CC4)cc(S(=O)(=O)NC4(C#N)CC4)cn23)C1 [Example 20, N-(1-cyanocyclopropyl)-8-(4-isobutyrylpiperazin-1-yl)-3-(1-propionyl-2,5-dihydro-1H-pyrrol-3-yl)imidazo[1,2-a]pyridine-6-sulfonamide]
8.29 | < 100 | CN1CC(Nc2cc(S(=O)(=O)NC3(C#N)CC3)cn3c(-c4nnc(C(F)F)s4)ncc23)C1 [Example 150, N-(1-cyanocyclopropyl)-3-(5-(difluoromethyl)-1,3,4-thiadiazol-2-yl)-8-((1-methylazetidin-3-yl)amino)imidazo[1,5-a]pyridine-6-sulfonamide]
135 | 100 to 500 | COc1ccc(N(C)c2cc(S(=O)(=O)NC3(C#N)CC3)cn3c(-c4nnc(C(F)F)s4)ncc23)cc1 [Example 45, N-(1-cyanocyclopropyl)-3-(5-(difluoromethyl)-1,3,4-thiadiazol-2-yl)-8-((4-methoxyphenyl)(methyl)amino)imidazo[1,5-a]pyridine-6-sulfonamide]
